From patent publication US20110191897A1, “Plants Tolerant to HPPD Inhibitor Herbicides” (Bayer CropScience AG, priority 2009, published 2011)
Like-named read-outs stand apart in the source and are kept apart here.

What was measured:
[1] = tested on: tobacco plants with FMP37t-h, PAT and 2mEPSPS (pFCO112); experiment: Glasshouse trial of tobacco with three tolerance genes; assay type: in vivo, Nicotiana tobacum; settings: 9 DAT
Method: A binary vector for tobacco transformation is, for example, constructed with the CaMV35 promoter driving the expression of the gene FMP37t-h (SEQ ID No. 15), with a codon usage optimized for the expression in dicotyledoneous plants and at its 5′ extremity was added a sequence coding for an OTP, and further upstream a sequence TEV (Tobacco etch virus) to improve the stability of the mRNA in plants followed by the CaMV35S terminator. The nucleotide sequence of the gene FMP37t-h is given in SEQ ID No. 15. Additionally, the transformation vector also contains a PAT gene cassette in which the gene is driven by a CaVM35S promoter and followed by a CaMV35S terminator for glufosinate based selection during the transformation process and a 2mEPSPS gene cassette in which the gene is driven by an histone promoter from Arabidopsis to confer tolerance to the herbicide glyphosate to the transformed plants (see FIG. 3 H). The binary vector was called pFCO112. The above vector was used to transform leaf disks obtained from Nicotiana tobacum plants, according to Example 3.
Transgenic tobacco plants were transferred to the greenhouse and treated with glyphosate at a rate of 1121 g Al/ha. Seeds were produced from such tolerant tobacco plants and harvested. These seeds were put on soil to germinate in the glasshouse. Three to four weeks later, 50 plantlets per event were transferred to single pots. Two weeks later, plants of a size 4-6 cm were sprayed either with:
[…] […] Non-transgenic tobacco plants were completely killed by treatment using one or more of the above herbicides.

[2] = molecular target: T1, Blepharisma japonicum HPPD (SEQ ID No. 5) (Blepharisma japonicum, UniProt A8R3H6); experiment: biochemical; settings: for inhibition at 5 µM: read-out: percentage of inhibition
T1 sequence (A8R3H6 entry or part of it): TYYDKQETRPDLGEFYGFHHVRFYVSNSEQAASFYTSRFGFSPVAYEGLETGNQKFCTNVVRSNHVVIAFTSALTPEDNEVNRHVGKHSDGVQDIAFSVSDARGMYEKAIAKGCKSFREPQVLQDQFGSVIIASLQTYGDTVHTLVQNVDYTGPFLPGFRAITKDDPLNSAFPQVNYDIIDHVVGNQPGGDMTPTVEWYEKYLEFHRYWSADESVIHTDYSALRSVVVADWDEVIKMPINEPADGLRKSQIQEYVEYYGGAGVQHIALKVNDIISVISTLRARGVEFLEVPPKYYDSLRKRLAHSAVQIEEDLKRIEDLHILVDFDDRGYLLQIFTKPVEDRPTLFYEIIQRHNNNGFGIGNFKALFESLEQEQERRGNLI

[3] = molecular target: T2, Arabidopsis thaliana HPPD (SEQ ID No. 10) (Arabidopsis thaliana, UniProt P93836); experiment: Spectrophotometric HPPD activity assay in presence of HPPD inhibitors; assay type: biochemical; settings: for inhibition at 5 µM: read-out: percentage of inhibition
T2 construct: made in house; host or cells: E. coli K-12 BL21 (pQE30-AtHPPD)
T2 sequence (P93836 with tags, fused parts or gaps): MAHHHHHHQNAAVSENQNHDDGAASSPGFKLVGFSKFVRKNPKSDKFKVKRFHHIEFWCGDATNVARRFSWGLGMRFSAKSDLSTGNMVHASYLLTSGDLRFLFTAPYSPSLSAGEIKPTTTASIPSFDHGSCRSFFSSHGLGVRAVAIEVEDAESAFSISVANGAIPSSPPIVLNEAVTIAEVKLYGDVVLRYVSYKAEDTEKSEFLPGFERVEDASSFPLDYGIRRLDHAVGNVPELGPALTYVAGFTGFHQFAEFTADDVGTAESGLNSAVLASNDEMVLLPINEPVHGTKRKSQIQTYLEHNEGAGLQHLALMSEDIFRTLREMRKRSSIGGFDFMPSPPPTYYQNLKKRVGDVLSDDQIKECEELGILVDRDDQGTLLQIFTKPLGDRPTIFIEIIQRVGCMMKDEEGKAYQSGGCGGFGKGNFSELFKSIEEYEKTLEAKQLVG

[4] = tested on: leaf disks of tobacco plants containing HPPD SEQ ID No. 11 (Arabidopsis thaliana); experiment: Leaf disk regeneration on media with HPPD inhibitors; assay type: cell-based, Nicotiana tabacum; settings: 10^−6 M, 6 weeks
Method: (§1) At the end of the experiments the level of regeneration was evaluated as followed:
(§2) “−” means that the leaf disks looked the same as leaf disk from wild type tobacco plants on media supplemented with the inhibitor mentioned above. “++++” means that the leaf disks looked like the leaf disks from the wild type tobacco plants on media without inhibitor. “+”, “++”, and “+++” indicate regenerated leaf disks were heavily (+), medium (++) and less (+++) affected by the presence of the inhibitors.

[5] = tested on: leaf disks of tobacco plants containing HPPD SEQ ID No. 7 (Blepharisma japonicum); experiment: as above; assay type: cell-based, Nicotiana tabacum; parameters: key to the marks not given beside the values; settings: 10^−6 M, 6 weeks
Method: as §1, §2

[6] = molecular target: T1, Blepharisma japonicum HPPD (SEQ ID No. 5); experiment: HPLC assay of HPPD in vitro kinetic properties; assay type: biochemical
Method: Km, Vmax, and kcat values for different HPPD enzyme preparations and Ki, K1=Kon, and K−1=Koff for different HPPD inhibitors were determined using a HPLC assay for measurements of HPPD activity. […] All assays were started by the addition of HPPD enzyme to the assay mixture and stopped at a series of times between 0 and 240 s by addition of 200 μl of the reaction mixture to reaction assay tubes containing 20 μl 10% perchloric acid. Precipitated protein was pelleted by a 5 minute centrifugation at 10,000 g. […] A standard set of concentrations of HGA were used to provide a standard curve in order to calibrate the 292 nm absorbance of the HGA peak versus HGA concentration.
For Km and Vmax value determinations the initial rates of the HPPD reaction at different substrate concentrations were determined from plots of HGA formed versus time and fitted to the Michaelis-Menten equation for unireactant enzymes using the ID Business Solutions Ltd. (www.idbs.com) XLfit software suite. For the determination of Ki, K1=Kon, and Ki=Koff values the time-courses of the HPPD reaction at different inhibitor concentrations were fitted to the equations for Mechanism A, competitive inhibition, for tight-binding inhibitors (Cha, S. (1975) Tight-binding inhibitors—I. Kinetic behaviour. Biochemical Pharmacology 24, 2177-2185) using the ID Business Solutions Ltd. XLfit software suite

[7] = molecular target: T2, Arabidopsis thaliana HPPD (SEQ ID No. 10); experiment: HPLC assay of HPPD in vitro kinetic properties; assay type: biochemical; settings: substrate HPP 10-400 μM, pH 7.8
Method: Km, Vmax, and kcat values for different HPPD enzyme preparations and Ki, K1=Kon, and K−1=Koff for different HPPD inhibitors were determined using a HPLC assay for measurements of HPPD activity. […] All assays were started by the addition of HPPD enzyme to the assay mixture and stopped at a series of times between 0 and 240 s by addition of 200 μl of the reaction mixture to reaction assay tubes containing 20 μl 10% perchloric acid. Precipitated protein was pelleted by a 5 minute centrifugation at 10,000 g.
For Km and Vmax value determinations the initial rates of the HPPD reaction at different substrate concentrations were determined from plots of HGA formed versus time and fitted to the Michaelis-Menten equation for unireactant enzymes using the ID Business Solutions Ltd. (www.idbs.com) XLfit software suite.

[8] = tested on: wild type tobacco plants; experiment: Glasshouse response to bicyclopyrone, injury classes; assay type: in vivo, Nicotiana tabacum; settings: WT, 100 g Al/ha, 7 DAT
Source text: (§3) Seeds of wild type tobacco plants and T1 tobacco plants carrying the gene from Blepharisma japonicum FMP37e coding for HPPD were sown on MS media (Murashige and Skoog […]) supplemented with […] kanamycin. After 4 weeks, rooted green plantlets were transferred to soil and grown for 3 weeks in the glasshouse as described above then sprayed with a mixture containing bicyclopyrone (100 g Al/ha), ammonium sulfate and methyl ester raps oil. The plants were classified in two categories based on the phenotype developed in response to the herbicide seven days after the treatment. […] In this case, only plants containing at least one T-DNA were exposed to the herbicidal treatment.

[9] = tested on: T1 tobacco plants carrying FMP37e (kanamycin selected); experiment: as above; assay type: in vivo, Nicotiana tabacum; settings: 7 DAT
Source text: as §3

[10] = 5.0 × 10^−6M inhibitor (Table 4)
[11] = substrate HPP 10-400 μM, pH 7.8

With `CP(=O)(O)CCC(N)C(=O)O` (stereo not drawn) [Glufosinate-ammonium] the “number of plants in Class I (no injuries)” value (shortened to “number … (no injuries)”) ([1]; line 634, 1000 g AI/ha) was 10, the “number of plants in Class II (injury: 10-40%)” value (from here on “number … (injury: 10-40%)”) ([1]; line 634, 1000 g AI/ha) was 0 and the “number of plants in Class III (injury: 41-100%)” value (“number … (injury: 41-100%)” for short) ([1]; line 634, 1000 g AI/ha) was 0. For the same molecule, the “number … (no injuries)” value ([1]; line 713, 1000 g AI/ha) was 10, the “number … (injury: 10-40%)” value ([1]; line 713, 1000 g AI/ha) was 0 and the “number … (injury: 41-100%)” value ([1]; line 713, 1000 g AI/ha) was 0.
Work on `Cc1nn(C)c(O)c1C(=O)c1ccc(C(F)(F)F)cc1S(C)(=O)=O` [Pyrasulfotole] yielded a pI50 ([2]; 2 mM HPP, 3 minutes incubation) of 4.4, a percentage of inhibition [2, 10] of 0% and a pI50 ([3]; 2 mM HPP, 3 minutes incubation) of 5.4. For the same molecule, the percentage of inhibition [3, 10] was 69%.
In the case of `CS(=O)(=O)c1ccc(C(=O)C2C(=O)CCCC2=O)c([N+](=O)[O-])c1` [Mesotrione, 2-[4-(methylsulfonyl)-2-nitrobenzoyl]-1,3-cyclohexanedione], the “level of regeneration of leaf disks” value [4] is reported as “−”, the “level of regeneration of leaf disks” value [5] is reported as “++++” and the IC50 [3] is reported as under 2.51 µM. It also gave an inhibition at 5 µM [3, 10] of 86%.
Molecule `CS(=O)(=O)c1ccc(C(=O)C2C(=O)CCCC2=O)c(Cl)c1` [Sulcotrione, 2-[2-chloro-4-(methylsulfonyl)benzoyl]-1,3-cyclohexanedione] has an IC50 [3] of under 2.51 µM and an inhibition at 5 µM [3] of 74%.
With `Cc1ccc(C(=O)COc2c(C(=O)c3ccc(Cl)c(C)c3Cl)c(C)nn2C)cc1` [Benzofenap] the IC50 ([2]; read-out: pI50 (converted)) was 3.16 µM, the inhibition at 5 µM [2] was 85% and the IC50 ([3]; read-out: pI50 (converted)) was under 2.51 µM. The inhibition at 5 µM [3] was 90%.
`O=C(O)C(=O)Cc1ccc(O)cc1` [HPP, para-hydroxyphenylpyruvate] showed a Km [6, 11] of 83 µM, a Vmax [6, 11] of 0.1 µM and a Km [7] of 6.3 µM. For the same molecule, the Vmax [7] was 1.2 µM.
`CS(=O)(=O)c1cc(C(F)(F)F)ccc1C(=O)C(C#N)C(=O)C1CC1` (stereo not drawn) [Diketonitrile, 2-cyano-3-cyclopropyl-1-(2-methylsulphonyl-4-trifluoromethylphenyl)-propane-1,3-dione] showed a Ki [6] of 6.6 µM and an inhibition at 5 µM [3, 10] of 87%.
With `COCCOCc1nc(C(F)(F)F)ccc1C(=O)C1=C(O)C2CCC(C2)C1=O` (stereo not drawn) [Bicyclopyrone, 4-hydroxy-3-[[2-[(2-methoxyethoxy)methyl]-6-(trifluoromethyl)-3-pyridinyl]carbonyl]bicyclo[3.2.1]oct-3-en-2-one] the “level of regeneration of leaf disks” value [4] was “−”, the “level of regeneration of leaf disks” value [5] was “++++” and the “number of plants in Class I (injury: 0-30%)” value (shortened to “number … (injury: 0-30%)”) [8] was 0. The “number of plants in Class II (injury: 31-100%)” value (“number … (injury: 31-100%)” below) [8] was 12, the “% of tolerant plant” value ([9]; line 113, 100 g Al/ha) was 56% and the “number … (injury: 0-30%)” value ([9]; line 113, 100 g Al/ha) was 60. The “number … (injury: 31-100%)” value ([9]; line 113, 100 g Al/ha) was 78, the “% of tolerant plant” value ([9]; line 207, 100 g Al/ha) was over 60% and the “number … (injury: 0-30%)” value ([9]; line 207, 100 g Al/ha) was 65. For the same molecule, the “number … (injury: 31-100%)” value ([9]; line 207, 100 g Al/ha) was over 100, the “% of tolerant plant” value ([9]; line 208, 100 g Al/ha) was 67% and the “number … (injury: 0-30%)” value ([9]; line 208, 100 g Al/ha) was 44. The “number … (injury: 31-100%)” value ([9]; line 208, 100 g Al/ha) was 90, the IC50 ([2]; read-out: pI50 (converted)) was 200 µM and the inhibition at 5 µM [2] was 0%. The IC50 [3] was 6.31 µM and the inhibition at 5 µM [3] was 29%.
In the case of `O=C(O)CNCP(=O)(O)O` [Glyphosate], the “number … (no injuries)” value ([1]; line 634, 1121 g AI/ha) is reported as 10, the “number … (injury: 10-40%)” value ([1]; line 634, 1121 g AI/ha) is reported as 0 and the “number … (injury: 41-100%)” value ([1]; line 634, 1121 g AI/ha) is reported as 0. For the same molecule, the “number … (no injuries)” value ([1]; line 713, 1121 g AI/ha) was 10, the “number … (injury: 10-40%)” value ([1]; line 713, 1121 g AI/ha) was 0 and the “number … (injury: 41-100%)” value ([1]; line 713, 1121 g AI/ha) was 0.
With `Cc1ccc(S(=O)(=O)Oc2c(C(=O)c3ccc(Cl)cc3Cl)c(C)nn2C)cc1` [Pyrazolate] the IC50 [2] was 20 µM, the inhibition at 5 µM [2] was 0% and the inhibition at 5 µM [3, 10] was 61%. For the same molecule, the IC50 ([3]; read-out: pI50 (converted)) was 3.98 µM.
Work on `CS(=O)(=O)c1ccc(C(=O)C2C(=O)CCCC2=O)c(Cl)c1COCC1CCCO1` (stereo not drawn) [Tefuryltrione, 2-[2-chloro-4-(methylsulfonyl)-3-[[(tetrahydro-2-furanyl)methoxy]methyl]benzoyl]-1,3-cyclohexanedione] yielded an inhibition at 5 µM [3, 10] of 100%.
